Among the data in ChEMBL document CHEMBL4819103, “Discovery of selective fragment-sized immunoproteasome inhibitors” (Eur J Med Chem, 2021) are Activity and IC50 values, retold here.

In assay [1] the target is T1, Proteasome subunit beta type-8 (Homo sapiens) (UniProt P28062).
T1 sequence (whole entry): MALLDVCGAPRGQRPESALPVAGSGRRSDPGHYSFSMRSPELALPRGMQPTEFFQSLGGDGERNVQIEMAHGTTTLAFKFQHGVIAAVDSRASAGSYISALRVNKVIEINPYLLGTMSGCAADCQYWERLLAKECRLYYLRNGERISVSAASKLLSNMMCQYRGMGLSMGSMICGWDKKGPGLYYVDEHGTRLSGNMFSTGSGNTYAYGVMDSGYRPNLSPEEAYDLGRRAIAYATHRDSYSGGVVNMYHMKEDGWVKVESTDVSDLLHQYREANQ
The assay can be described thus: Inhibition of human chymotrypsin-like beta 5i subunit of iCP assessed as residual activity using suc-LLVY-AMC as flurogenic substrate at 100 uM for 90 mins by fluorescence-based assay.

The target of assay [2] is T2, Proteasome subunit beta type-8 (Homo sapiens, UniProt P28062).
T2 sequence (P28062 whole entry): T1 sequence (whole entry)
As to the kind of experiment: Inhibition of human chymotrypsin-like beta 5i subunit of iCP using suc-LLVY-AMC as flurogenic substrate for 90 mins by fluorescence-based assay.

As to `Cn1c(=S)[nH]c2ccc(NC(=O)CCc3cccnc3)cc21`, the Activity in assay [1] came out at 72%.
With `CS(=O)(=O)c1nc2ccccc2s1`, the Activity in assay [1] turned out to be 88%.
Turning to `Cn1c(=S)[nH]c2cccc(NC(=O)CCc3cccnc3)c21`, in assay [1], the Activity is 92%.
With `O=C(Nc1ccc2[nH]c(=S)sc2c1)[C@H]1CCCN1`, the IC50 in assay [2] is 95 µM.
As for `S=c1[nH]c2c(Cl)cccc2o1`, half-maximal inhibition in assay [2] (IC50) was put at 36 µM.
As for `N#Cc1cccc(-c2cccc3[nH]c(=S)sc23)c1`, the Activity in assay [1] came to 70%.
With `O=C(Nc1ccc2[nH]c(=S)oc2c1)c1ccccc1`, the IC50 in assay [2] was found to be 49 µM.
For `O=C(Nc1ccc2[nH]c(=S)oc2c1)[C@H]1CCCN1`, the Activity in assay [1] came to 65%.
Still for that read-out and setting: then `COc1ccc2oc(=S)[nH]c2c1`, with 59%; and `S=c1[nH]c2cccc(Br)c2[nH]1`, with 87%.
`CC(=O)Nc1ccc2[nH]c(=S)sc2c1` displayed an IC50 in assay [2] of 130 µM.
As to `Cn1c(C#N)nc2ccccc21`, the Activity in assay [1] was 99%.
Regarding `N#Cc1nc2ccccc2s1`, the Activity in assay [1] stood at 61%.
`O=C(Cc1cccnc1)Nc1ccc2[nH]c(=S)sc2c1`: the IC50 in assay [2] was 15 µM.
As for `Cn1c(=S)[nH]c2ccc([N+](=O)[O-])cc21`, the Activity in assay [1] was found to be 52%.
In turn, `COc1cccc2oc(=S)[nH]c12` returned an IC50 in assay [2] of 81 µM.
The same measure, in the same setting: then `O=C(CCc1cccnc1)Nc1ccc2[nH]c(=S)sc2c1`, with 26 µM.
Take `N#Cc1nc2ccc(Cl)cc2s1`: the Activity in assay [1] was determined as 58%.
With `N#Cc1nc2ccccc2[nH]1`, in assay [1], the Activity is 89%.
As for `CC(=O)Nc1ccc2[nH]c(=S)oc2c1`, the Activity in assay [1] was found to be 63%.
As for `Cn1c(=S)[nH]c2ccc(NC(=O)Cc3cccnc3)cc21`, in assay [1], the Activity turned out to be 89%.
Compound `COc1ccc2[nH]c(=S)sc2c1` yielded an IC50 in assay [2] of 13 µM.
As for `Cn1c(=S)[nH]c2cccc(N)c21`, in assay [1], the Activity was determined as 63%.
Turning to `Cn1c(C#N)nc2ccc(Cl)cc21`, the Activity in assay [1] came to 50%.
Take `S=c1[nH]c2cccc(-c3ccccc3)c2s1`: in assay [1], the Activity came out at 54%.
`Nc1ccc2[nH]c(=S)oc2c1` returned an IC50 in assay [2] of 27 µM.
For the compound `S=c1[nH]c2cccc(Cl)c2[nH]1`, in assay [2], the IC50 is 60 µM.
Consider `Cn1c(=S)[nH]c2ccc(N)cc21`, for which the Activity in assay [1] stood at 67%.
The compound `Nc1cccc2[nH]c(=S)oc12` displayed an IC50 in assay [2] of 79 µM.
`N#Cc1nc2c(Cl)cccc2s1` yielded an IC50 in assay [2] of 85 µM.
As to `C=CS(=O)(=O)c1nc2ccccc2s1`, the Activity in assay [1] was determined as 40%.
On to `CC(=O)Nc1ccc2[nH]c(=S)n(C)c2c1`, for which half-maximal inhibition in assay [2] (IC50) required 149 µM.
Regarding `Nc1ccc2nc(S)sc2c1`, in assay [1], the Activity is 80%.
On to `Cc1ccc2oc(=S)[nH]c2c1`, for which the Activity in assay [1] was 99%.
The same measure, in the same setting: the figure for `Cc1ccc2sc(=S)[nH]c2c1` is 56%.
For `COC(=O)c1ccc2[nH]c(=S)oc2c1`, the IC50 in assay [2] is 3 µM.
As to `C=CC(=O)Nc1nc2ccccc2n1C`, the Activity in assay [1] was determined as 83%.
Regarding `Cn1c(=S)[nH]c2cccc(NC(=O)Cc3cccnc3)c21`, in assay [1], the Activity came out at 94%.
`O=C(Cc1cccnc1)Nc1cccc2[nH]c(=S)oc12` had an IC50 in assay [2] of 156 µM.
Turning to `Cn1c(=S)[nH]c2cccc(NC(=O)c3ccccc3)c21`, in assay [1], the Activity came to 47%.
`CCOc1ccc2nc(S)sc2c1`: in assay [2], the IC50 amounted to 9 µM.
Compound `COc1ccc2sc(=S)[nH]c2c1` registered an IC50 in assay [2] of 7.2 µM.
In the case of `C=CC(=O)Nc1nc2ccccc2s1`, in assay [1], the Activity was 44%.
The same measure, in the same setting: then `O=C(CCl)Nc1nc2ccccc2s1`, with 73%.
In the case of `Cn1c(=S)[nH]c2ccc(NC(=O)[C@H]3CCCN3)cc21`, in assay [2], the IC50 worked out at 109 µM.
For `O=C(CCc1cccnc1)Nc1ccc2[nH]c(=S)oc2c1`, the Activity in assay [1] worked out at 56%.
In assay [2], `Sc1nc2cc(Cl)ccc2s1` had a half-inhibitory concentration (IC50) of 32 µM.
As for `O=C(Cc1cccnc1)Nc1ccc2[nH]c(=S)oc2c1`, the Activity in assay [1] came out at 50%.
As to `O=C(Nc1ccc2nc(S)sc2c1)c1ccccc1`, the IC50 in assay [2] is 7.1 µM.
`O=C(Nc1cccc2[nH]c(=S)oc12)c1ccccc1` registered an IC50 in assay [2] of 129 µM.
